{"source": "patent US20060121126A1", "about": "“Environmentally friendly pesticide and method of use” (priority 2004, published 2006)", "test_system": "Culex pipiens and Aedes Egypti late 3rd instar larvae", "test": "Mosquito larvae mortality in cups of tap water", "format": "in vivo", "conditions": "20 larvae in 150 mL tap water", "description": "A series of control experiments are conducted to study the effect of aqueous hydrogen peroxide and saponin extract on mosquito larvae, individually, and in combination. In a series of 30 experiments, 20 Culex pipiens and Aedes Egypti in the late 3rd instar larvae are placed in a cup containing 150 mL of tap water. In separate experiments, the larvae are exposed to varying concentrations of hydrogen peroxide saponin extract. The mortality is recorded over a 5-day period.", "data": [{"molecule": "OO", "note": "[hydrogen peroxide]", "values": [{"measurement": "concentration needed to achieve 50% larvae mortality in 24 hrs", "value": "> 100", "unit": "ppm"}]}]}
